In US20240285672A1, “BETA-GLUCAN FOR PREVENTING AND/OR TREATING FIBROSIS AND RELATED DISEASES” (GN Corporation Co Ltd, priority 2021, published 2024):

Columns and labels:
Type in all cases: in vivo, C57BL/6J mice
[1] = Plasma ALT in STAM mice (F18S study); conditions: at 9 weeks of age
Protocol: At study termination, non-fasting blood was collected through direct cardiac puncture using pre-cooled syringes. The collected blood was transferred in pre-cooled polypropylene tubes with anticoagulant (Novo-Heparin) and stored on ice until centrifugation. The blood samples were centrifuged at 1,000×g for 15 minutes at 4° C. The supernatant was collected and stored at −80° C. for biochemistry and evaluation.
Plasma ALT levels were measured by FUJI DRI-CHEM 7000 (Fujifilm Corporation).

[2] = tested on: STAM mouse model of non-alcoholic steatohepatitis; assay: Sirius red staining of liver sections, fibrosis area (F18S study); conditions: STAM mice liver, x200
Protocol: To visualize collagen deposition, Bouin's fixed liver sections were stained using picro-Sirius red solution (Waldeck, Germany). Briefly, sections were deparaffinized and hydrophilized with xylene, 100-70% alcohol series and RO water, and then treated with 0.03% picro-Sirius red solution (Cat No.: 1A-280) for 60 minutes. After washing with 0.5% acetic acid solution and RO water, stained sections were dehydrated and cleared with 70-100% alcohol series and xylene, then sealed with Entellan® new (Merck, Germany) and used for observation.
For quantitative analysis of the fibrosis area and inflammation area, bright field images of Sirius red-stained and F4/80-immunostained sections were captured around the central vein using a digital camera (DFC295; Leica, Germany) at 200-fold magnification, and the positive areas in 5 fields/section were measured using ImageJ software (National Institute of Health, USA).

[3] = tested on: STAM mouse model of non-alcoholic steatohepatitis; assay: HE staining, NAFLD Activity Score (F18S study); conditions: STAM mice liver
Protocol: For HE staining, sections were cut from paraffin blocks of liver tissue prefixed in Bouin's solution and stained with Lillie-Mayer's Hematoxylin (Muto Pure Chemicals Co., Ltd., Japan) and eosin solution (Wako Pure Chemical Industries). The NAFLD Activity Score (NAS) was calculated according to the criteria of Kleiner (Kleiner D E. Et al., Hepatology, 2005; 41:1313), as shown in Table 2. For NAS scoring, bright field images of HE-stained sections were captured using a digital camera (DFC295; Leica, Germany) at 50- and 200-fold magnifications. Steatosis score in 1 section/mouse (representative 1 field at 50-fold magnification), inflammation score in 1 section/mouse (representative 1 field around the central vein at 200-fold magnification) and ballooning score in 1 section/mouse (representative 1 field around the central vein at 200-fold magnification) were estimated.

gut microbiota = assay: Gut microbiome analysis of fecal samples, 16S rRNA sequencing (STAM mice)
Description: Frequency: Fecal samples were collected at the 6 weeks of age (before administration) and 9 weeks of age (before sacrifice).
Procedure: At 6 weeks of age, fecal samples were collected from each mouse by clean catch method. Handle animals with clean gloves sterilized with 70% ethanol. A sterile petri dish was placed on the bench. Gently massage the abdomen, position the bottom of mouse over a fresh petri dish, and collect 1-2 fecal pellets. At sacrifice, fecal samples were aseptically collected from cecum. The tubes with feces were placed on ice immediately. These tubes were snap frozen in liquid nitrogen and stored at −80° C. for shipping.
In this analysis, the 16S rRNA sequence data acquired by the next-generation sequencer from the fecal […] was used to perform community analysis using the QIIME2 program for microbial community analysis. The raw read data in FASTQ format output from the next-generation sequencer was trimmed to remove adapter sequences and low QV regions that may be included in the data. Cutadapt was used to remove adapter sequences from DNA sequencing reads. Trimmomatic was used as read trimming tool for Illumina NGS data. The adapter sequence was trimmed using the adapter trimming program “cutadapt” if the Trimming of the region at the end of the read sequence overlapped the corresponding sequence by at least one base (mismatch tolerance: 20%). […]

For `CCCc1nc2c(C)cc(-c3nc4ccccc4n3C)cc2n1Cc1ccc(-c2ccccc2C(=O)O)cc1` [Telmisartan], the “Plasma ALT levels (Mean)” value [1] was 36 U/L, the “Sirius red average positive stained area” value [2] was 0.59 and the NAS average score ([3]; HE staining) was 2.625. For the same compound, the “NAS compared with the other groups” value ([3]; HE staining) was “significantly lesser score”, the “Ballooning and steatosis score” value ([3]; compared with the vehicle) was “decreased most” and the “decrease in firmicutes and increase in Bacteroides” value (gut microbiota; post-intervention, compared to all other groups) was “highest”. For the same compound, the Proteobacteria (gut microbiota; pre vs post-intervention) was “increased”.
